The results in this text go back to PubChem BioAssay (NCI).

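All cell lines were grown in 96-well plates and treated with compound for 48 hours. At the TGI there is no net growth.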

Test systems include A549 NSCLC; COLO 205 colon; HCT-15 colon; HOP-62 NSCLC; KM12 colon; MALME-3M melanoma; SF-539 CNS; SK-MEL-28 melanoma; SK-OV-3 ovarian; SR leukemia; T-47D breast; UACC-257 melanoma.
What all share (test): NCI tumour cell line growth inhibition, 48 h

As to `CCN1CCC(O)(c2ccc(Oc3ccc(F)cc3)cc2)C(C(=O)c2ccc(Oc3ccc(F)cc3)cc2)C1` (configuration not stated), the TGI in the test with A549 NSCLC was determined as 29.5 µM; with COLO 205 colon, 33.5 µM; in the test with HCT-15 colon, 23.7 µM; with HOP-62 NSCLC, 30.1 µM; in the test with KM12 colon, 18.3 µM; with MALME-3M melanoma, 31 µM. Besides, the TGI was 33.2 µM in the test on SF-539 CNS; 30.5 µM with SK-MEL-28 melanoma; 32.2 µM in the test on SK-OV-3 ovarian; 6.5 µM in the test on SR leukemia; 30.9 µM with T-47D breast; 29.8 µM with UACC-257 melanoma.

For `O=S(=O)(Nc1nc2ccccc2nc1Nc1ccc2ccccc2c1)c1ccccc1`, the TGI in the test on A549 NSCLC is > 100 µM; in the test with COLO 205 colon, 26.3 µM; in the test on HCT-15 colon, > 57.5 µM; with HOP-62 NSCLC, 30.8 µM; with KM12 colon, > 59.3 µM; in the test on MALME-3M melanoma it was > 100 µM. Moreover, the TGI in the test on SF-539 CNS was 45.8 µM; in the test on SK-MEL-28 melanoma it was > 100 µM; with SK-OV-3 ovarian, > 100 µM; in the test with SR leukemia it was > 87.4 µM; in the test with T-47D breast it was > 100 µM; in the test with UACC-257 melanoma, > 100 µM.

As to `CC(C)(C)OC(=O)NC1CC2(C=C(Br)C(=O)C(Br)=C2)OC1=O` (configuration not stated), the TGI in the test with A549 NSCLC was 38.7 µM; with COLO 205 colon it was 13.4 µM; with HCT-15 colon, 23 µM; in the test with HOP-62 NSCLC, 36.8 µM; with KM12 colon it was 45.1 µM; with MALME-3M melanoma, 18.9 µM. The TGI with SF-539 CNS amounted to 42.5 µM; in the test on SK-MEL-28 melanoma, 37.9 µM; in the test on SK-OV-3 ovarian, 32.1 µM; in the test on SR leukemia, 4.18 µM; in the test on T-47D breast, 6.39 µM; in the test with UACC-257 melanoma it was 13 µM.

In the case of `CCOC(=O)C1=C(O)C2C3CC4C2C(O)=C(C(=O)OCC)C2C1C3C42` (configuration not stated), the TGI with A549 NSCLC, with COLO 205 colon, in the test on HCT-15 colon, in the test with HOP-62 NSCLC, in the test with KM12 colon and in the test on MALME-3M melanoma was > 100 µM in each case. In addition, the TGI in the test with SF-539 CNS, in the test on SK-MEL-28 melanoma, with SK-OV-3 ovarian, in the test with SR leukemia, with T-47D breast and in the test on UACC-257 melanoma was > 100 µM each time.

Regarding `CCOC(=O)c1c(N=P(c2ccccc2)(c2ccccc2)c2ccccc2)nnc(-c2ccccc2)c1-c1ccccc1`, the TGI in the test on A549 NSCLC, in the test with COLO 205 colon, with HCT-15 colon, with HOP-62 NSCLC, in the test on KM12 colon and with MALME-3M melanoma was > 100 µM each time. Moreover, the TGI in the test with SF-539 CNS, in the test on SK-MEL-28 melanoma, in the test with SK-OV-3 ovarian, in the test on SR leukemia, in the test on T-47D breast and in the test with UACC-257 melanoma was > 100 µM throughout.

For `O=CNNC(=O)Nc1cccc2ccccc12`, the TGI with A549 NSCLC, in the test on COLO 205 colon, in the test on HCT-15 colon, in the test on HOP-62 NSCLC, with KM12 colon and in the test with MALME-3M melanoma was > 100 µM in each case. Moreover, the TGI in the test on SF-539 CNS, in the test with SK-MEL-28 melanoma, with SK-OV-3 ovarian, with SR leukemia, in the test with T-47D breast and in the test with UACC-257 melanoma was > 100 µM in each case.

With `O=C(O)CCS/C(=C\C(SCCC(=O)O)c1ccc(Cl)cc1)c1ccc(Cl)cc1` (configuration not stated), the TGI in the test with A549 NSCLC was > 100 µM; in the test with COLO 205 colon, 43.4 µM; with HCT-15 colon, > 100 µM; in the test with HOP-62 NSCLC it was > 100 µM; in the test with KM12 colon, 65.4 µM; in the test on MALME-3M melanoma it was > 100 µM. In addition, the TGI with SF-539 CNS was > 100 µM; in the test with SK-MEL-28 melanoma it was > 100 µM; in the test on SK-OV-3 ovarian, > 100 µM; in the test on SR leukemia it was 78.5 µM; in the test on T-47D breast, > 100 µM; in the test on UACC-257 melanoma it was > 100 µM.

For `CSc1ccc(-c2cc(-c3nc4ccccc4[nH]3)no2)cc1`, the TGI is 90.8 µM in the test on A549 NSCLC; > 100 µM in the test with COLO 205 colon; 62.9 µM in the test on HCT-15 colon; > 100 µM with HOP-62 NSCLC; 68.5 µM with KM12 colon; > 100 µM in the test on MALME-3M melanoma. Also, the TGI in the test with SF-539 CNS was > 100 µM; in the test on SK-MEL-28 melanoma, > 100 µM; in the test with SK-OV-3 ovarian it was > 100 µM; in the test on SR leukemia it was > 100 µM; in the test on T-47D breast, 37.3 µM; with UACC-257 melanoma, 85.9 µM.

As for `Clc1ccc(C(c2ccccc2Cl)C(Cl)Cl)cc1` (configuration not stated), the TGI in the test on A549 NSCLC is 35.4 µM; with COLO 205 colon, 38.9 µM; in the test with HCT-15 colon it was 36.5 µM; in the test on HOP-62 NSCLC it was 39.7 µM; in the test with KM12 colon, 37.1 µM; in the test with MALME-3M melanoma, 33.5 µM. In addition, the TGI in the test on SF-539 CNS was determined as 36.5 µM; in the test on SK-MEL-28 melanoma, 36.7 µM; in the test on SK-OV-3 ovarian, 39.7 µM; with SR leukemia, 46.5 µM; in the test with T-47D breast, 33.3 µM; with UACC-257 melanoma, 37.2 µM.

In the case of `O=C(O)CCC(=O)c1ccc2c(c1)C(C(=O)O)CC2` (configuration not stated), the TGI in the test on A549 NSCLC, in the test with COLO 205 colon, in the test on HCT-15 colon, in the test with HOP-62 NSCLC, in the test on KM12 colon and in the test on MALME-3M melanoma was > 100 µM in each case. Besides, the TGI in the test with SF-539 CNS, with SK-MEL-28 melanoma, with SK-OV-3 ovarian, in the test with SR leukemia, with T-47D breast and in the test with UACC-257 melanoma was > 100 µM in each case.

Turning to `Cn1c2ccccc2c2c3c(c4c5ccccc5n(C)c4c21)C(=O)NC3=O`, the TGI in the test on A549 NSCLC is > 85.3 µM; in the test on COLO 205 colon, > 100 µM; in the test on HCT-15 colon, > 100 µM; in the test on HOP-62 NSCLC, > 55.8 µM; with KM12 colon, > 100 µM; in the test on MALME-3M melanoma it was > 100 µM. The TGI in the test with SF-539 CNS is 35.4 µM; with SK-MEL-28 melanoma it was > 100 µM; in the test with SK-OV-3 ovarian, > 100 µM; in the test on SR leukemia, > 100 µM; in the test on T-47D breast, > 100 µM; in the test with UACC-257 melanoma, > 100 µM.
